Paper PMC12136037, “Type II kinase inhibitors that target Parkinson’s disease–associated LRRK2” (Science Advances, 2025)
“And” between values parts separate entries of the source, which are not always exact repeats. Equal entries are not always repeated.

Target: T1, LRRK2^RCKW (Homo sapiens, UniProt Q5S007)
T1 construct: LRRK2 R1327 to E2527; His6-Z-tag (TEV cleavable) (N, cleaved yes); host or cells: Sf9 insect cells (baculovirus)
T1 sequence (Q5S007 1327-2527): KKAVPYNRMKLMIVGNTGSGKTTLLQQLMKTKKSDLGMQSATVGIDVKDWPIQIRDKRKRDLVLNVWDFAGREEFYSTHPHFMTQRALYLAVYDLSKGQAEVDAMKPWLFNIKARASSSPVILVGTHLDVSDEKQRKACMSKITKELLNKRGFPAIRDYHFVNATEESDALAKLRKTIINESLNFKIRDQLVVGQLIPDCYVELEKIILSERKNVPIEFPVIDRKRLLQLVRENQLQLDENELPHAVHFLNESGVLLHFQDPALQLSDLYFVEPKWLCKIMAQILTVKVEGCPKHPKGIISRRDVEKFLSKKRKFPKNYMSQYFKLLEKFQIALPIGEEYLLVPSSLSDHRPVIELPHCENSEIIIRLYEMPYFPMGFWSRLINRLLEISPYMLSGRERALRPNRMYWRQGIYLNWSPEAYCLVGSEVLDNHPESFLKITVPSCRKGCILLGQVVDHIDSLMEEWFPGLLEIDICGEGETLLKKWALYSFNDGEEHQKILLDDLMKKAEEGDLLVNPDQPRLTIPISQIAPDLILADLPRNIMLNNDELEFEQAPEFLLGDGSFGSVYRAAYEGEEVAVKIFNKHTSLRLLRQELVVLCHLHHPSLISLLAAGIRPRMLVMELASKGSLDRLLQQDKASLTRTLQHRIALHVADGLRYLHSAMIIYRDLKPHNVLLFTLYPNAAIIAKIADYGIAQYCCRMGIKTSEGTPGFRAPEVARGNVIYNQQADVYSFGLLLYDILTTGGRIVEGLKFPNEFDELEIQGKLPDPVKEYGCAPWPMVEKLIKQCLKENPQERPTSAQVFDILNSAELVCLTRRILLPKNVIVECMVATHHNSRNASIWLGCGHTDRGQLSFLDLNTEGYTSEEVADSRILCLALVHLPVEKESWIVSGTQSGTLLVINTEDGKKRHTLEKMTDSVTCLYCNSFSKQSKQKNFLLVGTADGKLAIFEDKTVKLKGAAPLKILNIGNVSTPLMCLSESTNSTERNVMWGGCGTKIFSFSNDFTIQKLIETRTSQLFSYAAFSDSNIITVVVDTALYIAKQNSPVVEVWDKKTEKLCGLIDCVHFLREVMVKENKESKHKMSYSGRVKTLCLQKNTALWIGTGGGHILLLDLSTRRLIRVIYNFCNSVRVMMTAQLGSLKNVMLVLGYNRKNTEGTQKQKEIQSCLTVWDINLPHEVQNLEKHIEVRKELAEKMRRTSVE
Experiment: MS-based activity assay, Rab8a phosphorylation (pT72)
Format: biochemical
Conditions: for % phosphorylation: Rab8a; for % phosphorylation / Normalized: single runs; for LRRK2RCKW activity (% control): mean of n=3; for IC50: mass spectrometry, 1 mM ATP, 4 h, read-out: IC50, LRRK2^RCKW-mediated phosphorylation of Rab8a; for Normalized: normalized % phosphorylation of Rab8a
Procedure: To determine IC50 values for selected inhibitors, activity assay was performed using LRRK2^RCKW and Rab8A substrate (table S4). LRRK2^RCKW (20 nM) was incubated with 5 μM substrate and a concentration series of the respective inhibitor in 20 mM Hepes (pH 7.4), 100 mM NaCl, 0.5 mM TCEP, 0.5% glycerol, 20 μM GDP, and 2.5 mM MgCl2. The reaction was started by adding 1 mM ATP and incubated at room temperature for 4 hours. The phosphorylation reaction was stopped by addition of MS buffer (0.1% formic acid in water). Reaction mix (5 μl) was injected into an Agilent 6230 electrospray ionization time-of-flight mass spectrometer coupled to a 1260 Infinity liquid chromatography unit (flow rate at 0.4 ml/min using a solvent gradient of water to acetonitrile with 0.1% formic acid). Data were acquired using the MassHunter LC/MS Data Acquisition software and analyzed using the BioConfirm vB.08.00 tool (both Agilent Technology, www.agilent.com/en/product/software-informatics/mass-spectrometry-software, RRID: SCR_016657).
Peak intensities of unphosphorylated and phosphorylated Rab8A were quantified, and the relative kinase activity was calculated as a ratio. To determine the IC50, a nonlinear regression with variable slope was fitted to the datapoints with GraphPad Prism (www.graphpad.com/, RRID:SCR_002798). (For step-by-step protocol, see dx.doi.org/10.17504/protocols.io.6qpvr385ovmk/v2.)

[1] = inhibitor 0.21 (0.212), listed as RN277
[2] = inhibitor 0.64 (0.635), listed as RN277
[3] = inhibitor 1.91 (2), listed as RN277
[4] = inhibitor 5.72 (6), listed as RN277
[5] = inhibitor 17.15 (17), listed as RN277
[6] = inhibitor 51.44 (51), listed as RN277
[7] = inhibitor 154.32 (154), listed as RN277
[8] = inhibitor 462.96 (463), listed as RN277
[9] = inhibitor 1388.89 (1389), listed as RN277
[10] = inhibitor 4166.67 (4167), listed as RN277
[11] = inhibitor 12500, listed as RN277
[12] = inhibitor 0.21 (0.212), listed as RN341
[13] = inhibitor 0.64 (0.635), listed as RN341
[14] = inhibitor 1.91 (2), listed as RN341
[15] = inhibitor 5.72 (6), listed as RN341
[16] = inhibitor 17.15 (17), listed as RN341
[17] = inhibitor 51.44 (51), listed as RN341
[18] = inhibitor 154.32 (154), listed as RN341
[19] = inhibitor 462.96 (463), listed as RN341
[20] = inhibitor 1388.89 (1389), listed as RN341
[21] = inhibitor 4166.67 (4167), listed as RN341
[22] = inhibitor 12500, listed as RN341

Cc1ccc(-n2nc(C(C)(C)C)cc2NC(=O)Nc2cccc(-c3c[nH]c4nc(Cl)nc(N5CCOCC5)c34)c2)cc1 [Compound 30]
% phosphorylation [1]: 60.4% and 59.2% and 60.0%
% phosphorylation [2]: 61.6% and 60.3% and 62.2%
% phosphorylation [3]: 60.4% and 59.2%
% phosphorylation [4]: 61.0% and 59.5% and 59.1%
% phosphorylation [5]: 52.8% and 50.7% and 48.4%
% phosphorylation [6]: 34.0% and 33.1% and 33.2%
% phosphorylation [7]: 18.1% and 19.7% and 20.2%
% phosphorylation [8]: 8.2% and 8.7% and 10.4%
% phosphorylation [9]: 5.3% and 5.2% and 5.4%
% phosphorylation [10]: 4.0% and 5.6%
% phosphorylation [11]: 4.6% and 3.7% and 4.4%
LRRK2RCKW activity (% control) (inhibitor 0.64 nM): 102.03 % control
LRRK2RCKW activity (% control) (inhibitor 5.72 nM): 99.57 % control
LRRK2RCKW activity (% control) (inhibitor 17.15 nM): 84.23 % control
LRRK2RCKW activity (% control) (inhibitor 51.44 nM): 55.63 % control
LRRK2RCKW activity (% control) (inhibitor 154.32 nM): 32.20 % control
LRRK2RCKW activity (% control) (inhibitor 462.96 nM): 15.20 % control
LRRK2RCKW activity (% control) (inhibitor 1388.89 nM): 8.77 % control
IC50: 70 nM
Normalized [1]: 100.1 and 100.0 and 98.5
Normalized [2]: 102.0 and 101.9 and 102.2
Normalized [3]: 99.9 and 100.1 and 99.3
Normalized [4]: 100.9 and 100.6 and 97.0
Normalized [5]: 87.4 and 85.7 and 79.5
Normalized [6]: 56.4 and 55.8 and 54.6
Normalized [7]: 29.8 and 32.7 and 34.1
Normalized [8]: 13.5 and 14.4 and 17.6
Normalized [9]: 8.6 and 9.0
Normalized [10]: 6.6 and 9.5
Normalized [11]: 7.5 and 6.1

CCSc1nc(NC)c2c(-c3cccc(NC(=O)Nc4cc(C(C)(C)C)nn4-c4ccc(C)cc4)c3)c[nH]c2n1 [Compound 32]
% phosphorylation [12]: 66.5% and 61.3% and 65.1%
% phosphorylation [13]: 67.4% and 62.2% and 63.1%
% phosphorylation [14]: 64.1% and 60.1% and 61.1%
% phosphorylation [15]: 63.8% and 59.4% and 61.3%
% phosphorylation [16]: 55.5% and 52.5% and 53.7%
% phosphorylation [17]: 47.7% and 41.6% and 46.5%
% phosphorylation [18]: 25.7% and 23.0% and 24.6%
% phosphorylation [19]: 11.0% and 11.8% and 10.3%
% phosphorylation [20]: 8.0% and 8.8% and 7.9%
% phosphorylation [21]: 5.7% and 6.7% and 6.1%
% phosphorylation [22]: 5.9% and 7.2% and 6.3%
LRRK2RCKW activity (% control) (inhibitor 0.64 nM): 100.63 % control
LRRK2RCKW activity (% control) (inhibitor 5.72 nM): 96.37 % control
LRRK2RCKW activity (% control) (inhibitor 17.15 nM): 84.53 % control
LRRK2RCKW activity (% control) (inhibitor 51.44 nM): 70.93 % control
LRRK2RCKW activity (% control) (inhibitor 154.32 nM): 38.27 % control
LRRK2RCKW activity (% control) (inhibitor 462.96 nM): 17.40 % control
LRRK2RCKW activity (% control) (inhibitor 1388.89 nM): 12.93 % control
IC50: 110 nM
Normalized [12]: 99.7 and 99.1 and 103.7
Normalized [13]: 101.0 and 100.4 and 100.5
Normalized [14]: 96.1 and 97.0 and 97.3
Normalized [15]: 95.6 and 96.0 and 97.5
Normalized [16]: 83.2 and 84.9 and 85.6
Normalized [17]: 71.6 and 67.2 and 74.0
Normalized [18]: 38.5 and 37.1 and 39.2
Normalized [19]: 16.6 and 19.1 and 16.5
Normalized [20]: 12.0 and 14.2 and 12.6
Normalized [21]: 8.5 and 10.8 and 9.6
Normalized [22]: 8.9 and 11.6 and 10.1
